Measurements as given in patent US8227501B2, “1,6-dihydro-2H-3-oxa-6-aza-as-indacene compounds” (Ferrer Internacional, S.A., priority 2008, dated 2012).

Biological target: T1, recombinant human-MT1 receptor (Homo sapiens, UniProt P48039)
T1 construct: expressed in transfected cells; host or cells: unnamed cell line stably overexpressing human MT1, co-expressing mitochondrial apoaequorin and Gα16
Assay: In vitro MT1 screening, agonist activity (AequoScreen aequorin luminescence)
Assay type: cell-based
Details: percentage of activity relative to the reference agonist at the EC100 concentration; for activation at 0.001 µM: read-out: Agonism percentages of MT1, 1 nM; for activation at 0.1 µM: read-out: Agonism percentages of MT1, 100 nM
Text: To proceed with compound screening over MT1 receptor, a cell line characterised by a stable overexpression of recombinant human-MT1 receptor was used. This line co-expresses mitochondrial apoaequorin and subunit Gα16.
Subunit Gα16 belongs to […], in which intracelular signal transduction is produced via phospholipase (PLC). Activation of PLC produces an increment of inositol-triphosphate levels and intracellular calcium levels. This increment in calcium levels is, therefore, independent and full compatible with the signal transduction of MT1 receptor.
After binding to calcium, aequorin carries out the oxidation of colenterazine to colenteramide, a luminescent reaction.
Assay protocol for agonist screening consists in an overnight incubation of cells and colenterazine, being performed by an AequoScreen™ system instrument, PerkinElmer, USA. After that this mixture was injected over a plate that contains the solution of the compounds to screen and luminescence was immediately read. Only in case of antagonism screening, after 15-30 min of the first injection the reference agonist was added in the same well, and then luminescence was measured.
Agonist activity was calculated as percentage of activity relative to the reference agonist at the EC100 concentration. Activity of antagonists was expressed as the inhibition percentage over the activity of reference agonist at its EC80, concentration.

T1 sequence (P48039 whole entry): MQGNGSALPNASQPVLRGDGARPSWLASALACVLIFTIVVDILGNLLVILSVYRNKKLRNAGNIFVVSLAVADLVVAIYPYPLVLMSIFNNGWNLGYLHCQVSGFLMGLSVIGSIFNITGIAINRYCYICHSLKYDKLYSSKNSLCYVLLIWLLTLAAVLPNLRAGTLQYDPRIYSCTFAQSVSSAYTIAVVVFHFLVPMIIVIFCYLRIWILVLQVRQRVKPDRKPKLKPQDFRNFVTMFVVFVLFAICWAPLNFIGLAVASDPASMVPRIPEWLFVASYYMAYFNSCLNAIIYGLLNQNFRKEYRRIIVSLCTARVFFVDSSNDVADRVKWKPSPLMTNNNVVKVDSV

Row | Compound | activation at 0.001 µM (1 nM compound) | activation at 0.1 µM (100 nM compound) | Agonism percentages of MT1, 1 nM (1 nM compound) | Agonism percentages of MT1, 100 nM (100 nM compound)
1 | CC(=O)NCCc1c[nH]c2cc(F)c3c(c12)CCO3 [Compound 13, N-[2-(4-Fluoro-1,6-dihydro-2H-3-oxa-6-aza-as-indacen-8-yl)-ethyl]-acetamide] | 37.7% | 92.9% | – | –
2 | CCC(=O)NCCc1c[nH]c2cc(F)c3c(c12)CCO3 [Compound 14, N-[2-(4-Fluoro-1,6-dihydro-2H-3-oxa-6-aza-as-indacen-8-yl)-ethyl]-propionamide] | 55.1% | 102% | – | –
3 | CCCC(=O)NCCc1c[nH]c2cc(F)c3c(c12)CCO3 [Compound 15, N-[2-(4-Fluoro-1,6-dihydro-2H-3-oxa-6-aza-as-indacen-8-yl)-ethyl]-butiramide] | – | – | 43.0% | 108.2%
4 | CC(C)C(=O)NCCc1c[nH]c2cc(F)c3c(c12)CCO3 [Compound 16, N-[2-(4-Fluoro-1,6-dihydro-2H-3-oxa-6-aza-as-indacen-8-yl)-ethyl]-isobutyramide] | 23% | 82.3% | – | –
5 | O=C(NCCc1c[nH]c2cc(F)c3c(c12)CCO3)C1CC1 [Compound 17, Cyclopropanecarboxylic acid [2-(4-fluoro-1,6-dihydro-2H-3-oxa-6-aza-as-indacen-8-yl)-ethyl]-amide] | 43.8% | 93.2% | – | –
6 | O=C(NCCc1c[nH]c2cc(F)c3c(c12)CCO3)C(F)(F)F [Compound 18, 2,2,2-Trifluoro-N-[2-(4-fluoro-1,6-dihydro-2H-3-oxa-6-aza-as-indacen-8-yl)-ethyl]-acetamide] | 59.8% | 105% | – | –
7 | CCCC(=O)NCC(C)c1c[nH]c2cc(F)c3c(c12)CC(C)O3 (centres unmarked) [Compound 19, N-[2-(4-Fluoro-2-methyl-1,6-dihydro-2H-3-oxa-6-aza-as-indacen-8-yl)-propyl]-butyramide] | 27.8% | 96.8% | – | –
8 | CCC(=O)NCC(C)c1c[nH]c2cc(F)c3c(c12)CC(C)O3 (centres unmarked) [Compound 20, N-[2-(4-Fluoro-2-methyl-1,6-dihydro-2H-3-oxa-6-aza-as-indacen-8-yl)-propyl]-propionamide] | 30.2% | 94.3% | – | –
9 | CC(=O)NCC(C)c1c[nH]c2cc(F)c3c(c12)CC(C)O3 (centres unmarked) [Compound 21, N-[2-(4-Fluoro-2-methyl-1,6-dihydro-2H-3-oxa-6-aza-as-indacen-8-yl)-propyl]-acetamide] | 43.2% | 92.6% | – | –
10 | CC(=O)NCCc1c[nH]c2cc(F)c3c(c12)CC(C)O3 (centres unmarked) [Compound 22, N-[2-(4-Fluoro-2-methyl-1,6-dihydro-2H-3-oxa-6-aza-as-indacen-8-yl)-ethyl]-acetamide] | 50.5% | 96.8% | – | –
11 | CCC(=O)NCCc1c[nH]c2cc(F)c3c(c12)CC(C)O3 (centres unmarked) [Compound 23, N-[2-(4-Fluoro-2-methyl-1,6-dihydro-2H-3-oxa-6-aza-as-indacen-8-yl)-ethyl]-propionamide] | 39.1% | 99.7% | – | –
12 | CCCC(=O)NCCc1c[nH]c2cc(F)c3c(c12)CC(C)O3 (centres unmarked) [Compound 24, N-[2-(4-Fluoro-2-methyl-1,6-dihydro-2H-3-oxa-6-aza-as-indacen-8-yl)-ethyl]-butyramide] | 42.1% | 99.8% | – | –
13 | CCCCC(=O)NCCc1c[nH]c2cc(F)c3c(c12)CC(C)O3 (centres unmarked) [Compound 25, Pentanoic acid [2-(4-fluoro-2-methyl-1,6-dihydro-2H-3-oxa-6-aza-as-indacen-8-yl)-ethyl]-amide] | 31.9% | 98% | – | –
14 | CC1Cc2c(c(F)cc3[nH]cc(CCNC(=O)C(C)C)c23)O1 (centres unmarked) [Compound 26, N-[2-(4-Fluoro-2-methyl-1,6-dihydro-2H-3-oxa-6-aza-as-indacen-8-yl)-ethyl]-isobutyramide] | 25.7% | 84.8% | – | –
15 | CC1Cc2c(c(F)cc3[nH]cc(CCNC(=O)C4CC4)c23)O1 (centres unmarked) [Compound 27, Cyclopropanecarboxylic acid [2-(4-fluoro-2-methyl-1,6-dihydro-2H-3-oxa-6-aza-as-indacen-8-yl)-ethyl]-amide] | 33.8% | 91.1% | – | –
16 | CC1Cc2c(c(F)cc3[nH]cc(CCNC(=O)C(F)(F)F)c23)O1 (centres unmarked) [Compound 28, 2,2,2-Trifluoro-N-[2-(4-fluoro-2-methyl-1,6-dihydro-2H-3-oxa-6-aza-as-indacen-8-yl)-ethyl]-acetamide] | 36.1% | 97.2% | – | –

Row | Compound | activation at 0.001 µM (1 nM compound) | activation at 0.1 µM (100 nM compound) | Agonism percentages of MT1, 1 nM (1 nM compound) | Agonism percentages of MT1, 100 nM (100 nM compound)
17 | COC(=O)NCCc1c[nH]c2cc(F)c3c(c12)CC(C)O3 (centres unmarked) [Compound 29, [2-(4-Fluoro-2-methyl-1,6-dihydro-2H-3-oxa-6-aza-as-indacen-8-yl)-ethyl]-carbamic acid methyl ester] | 17.4% | 77.3% | – | –
18 | CCOC(=O)NCCc1c[nH]c2cc(F)c3c(c12)CC(C)O3 (centres unmarked) [Compound 30, [2-(4-Fluoro-2-methyl-1,6-dihydro-2H-3-oxa-6-aza-as-indacen-8-yl)-ethyl]-carbamic acid ethyl ester] | 7.1% | 68.1% | – | –
19 | CC(C)CC(=O)NCCc1c[nH]c2cc(F)c3c(c12)CC(C)O3 (centres unmarked) [Compound 31, N-[2-(4-Fluoro-2-methyl-1,6-dihydro-2H-3-oxa-6-aza-as-indacen-8-yl)-ethyl]-3-methyl-butyramide] | 22.3% | 90.4% | – | –
20 | CC1Cc2c(c(F)cc3[nH]cc(CCNC(=O)C(C)F)c23)O1 (centres unmarked) [Compound 32, 2-Fluoro-N-[2-(4-fluoro-2-methyl-1,6-dihydro-2H-3-oxa-6-aza-as-indacen-8-yl)-ethyl]-propionamide] | 38.6% | 93.1% | – | –
21 | CCNC(=O)NCCc1c[nH]c2cc(F)c3c(c12)CC(C)O3 (centres unmarked) [Compound 33, 1-Ethyl-3-[2-(4-fluoro-2-methyl-1,6-dihydro-2H-3-oxa-6-aza-as-indacen-8-yl)-ethyl]-urea] | 26.6% | 87.5% | – | –
22 | CC1Cc2c(c(F)cc3[nH]cc(C(C)CNC(=O)C(C)C)c23)O1 (centres unmarked) [Compound 34, N-[2-(4-Fluoro-2-methyl-1,6-dihydro-2H-3-oxa-6-aza-as-indacen-8-yl)-propyl]-isobutyramide] | 18.4% | 95.8% | – | –
23 | CC1Cc2c(c(F)cc3[nH]cc(C(C)CNC(=O)C4CC4)c23)O1 (centres unmarked) [Compound 35, Cyclopropanecarboxylic acid [2-(4-fluoro-2-methyl-1,6-dihydro-2H-3-oxa-6-aza-as-indacen-8-yl)-propyl]-amide] | 30.5% | 94% | – | –
24 | CC(C)CC(=O)NCC(C)c1c[nH]c2cc(F)c3c(c12)CC(C)O3 (centres unmarked) [Compound 36, N-[2-(4-Fluoro-2-methyl-1,6-dihydro-2H-3-oxa-6-aza-as-indacen-8-yl)-propyl]-3-methyl-butyramide] | 20.9% | 89.7% | – | –
25 | CC1Cc2c(c(F)cc3[nH]cc(C(C)CNC(=O)C(C)(C)C)c23)O1 (centres unmarked) [Compound 37, N-[2-(4-Fluoro-2-methyl-1,6-dihydro-2H-3-oxa-6-aza-as-indacen-8-yl)-propyl]-2,2-dimethyl-propionamide] | 6.6% | 52.8% | – | –
26 | CC1Cc2c(c(F)cc3[nH]cc(C(C)CNC(=O)C(F)(F)F)c23)O1 (centres unmarked) [Compound 38, 2,2,2-Trifluoro-N-[2-(4-fluoro-2-methyl-1,6-dihydro-2H-3-oxa-6-aza-as-indacen-8-yl)-propyl]-acetamide] | 36.9% | 101% | – | –
27 | CCCCC(=O)NCC(C)c1c[nH]c2cc(F)c3c(c12)CC(C)O3 (centres unmarked) [Compound 39, Pentanoic acid [2-(4-fluoro-2-methyl-1,6-dihydro-2H-3-oxa-6-aza-as-indacen-8-yl)-propyl]-amide] | 24.6% | 91.4% | – | –
28 | COC(=O)NCC(C)c1c[nH]c2cc(F)c3c(c12)CC(C)O3 (centres unmarked) [Compound 40, [2-(4-Fluoro-2-methyl-1,6-dihydro-2H-3-oxa-6-aza-as-indacen-8-yl)-propyl]-carbamic acid methyl ester] | 24% | 95.2% | – | –
29 | CCOC(=O)NCC(C)c1c[nH]c2cc(F)c3c(c12)CC(C)O3 (centres unmarked) [Compound 41, [2-(4-Fluoro-2-methyl-1,6-dihydro-2H-3-oxa-6-aza-as-indacen-8-yl)-propyl]-carbamic acid ethyl ester] | 13.1% | 78.9% | – | –
30 | CCNC(=O)NCC(C)c1c[nH]c2cc(F)c3c(c12)CC(C)O3 (centres unmarked) [Compound 42, 1-Ethyl-3-[2-(4-fluoro-2-methyl-1,6-dihydro-2H-3-oxa-6-aza-as-indacen-8-yl)-propyl]-urea] | 19.7% | 87.8% | – | –
31 | CC1Cc2c(c(F)cc3[nH]cc(C(C)CNC(=O)C(C)F)c23)O1 (centres unmarked) [Compound 43, 2-Fluoro-N-[2-(4-fluoro-2-methyl-1,6-dihydro-2H-3-oxa-6-aza-as-indacen-8-yl)-propyl]-propionamide] | 30.6% | 92.8% | – | –
